Assay results published in patent US20120100186A1, “NANOPARTICULATE-BASED CONTRACEPTIVE/ANTI-HIV COMPOSITION AND METHODS” (Washington University, priority 2010, published 2012).

Assays:
[1] = test system: Immortalized vaginal epithelial cells (VK2/E6E7); assay: Vaginal epithelium toxicity (MTT viability); type: cell-based; details: concentrations of melittin as low as 1 μM, 12 hours at 37° C., FIG. 1A
Description: For toxicity studies, 7500 cells were added to each well of a 96-well plate and allowed to attach for 24 hours. Melittin or melittin coated PFC-NP were then added and incubated with the cells for 12 hours at 37° C. with shaking at 500 rpm. Cells were washed once with media and incubated with MTT reagent for 4 hours. The colored product was solubilized in DMSO and absorbance at 570 nm was measured using a plate reader.
In more detail, cells were detached from a T75 flask by rinsing with 2-3 mL of trypsin, followed by adding 5 mL trypsin and incubating at 37° C. for 15 minutes. Five mL DMEM-FBS is then added to stop the trypsin, and the mixture is centrifuged at 900 rpm for 5 minutes, supernatant is removed and the cells are resuspended in 5 mL of Keratinocyte-Serum Free Media (Invitrogen™). The cells are diluted to approximately 75,000 cells/mL, and 100 μL of the cell suspension is added to each well of a 96-well plate and incubated for 24 hours at 37° C. The media are replaced with 100 μL of media containing the melittin or melittin-loaded nanoparticles at various concentrations and incubated for 12 hours at 37° C. with shaking at 500 rpm. […]
To each well containing 100 μL of media, 20 μL of MTT reagent (5 mg/mL MTT in PBS) were added, and incubated for 4 hours at 37° C. […] Absorbance is read at 570 nm using a plate reader.

sperm = assay: Sperm motility and viability (computer assisted sperm analysis); type: cell-based, Human; details: 30 minutes at 37° C., 10 million sperm per mL; FIGS. 5A-5D
Description: Human semen samples were obtained from the Washington University in vitro fertilization laboratory and stored at 37° C. until use. Semen was diluted in EmbryoMax® Human Tubal Fluid (HTF) (Millipore) and free melittin or melittin-coupled nanoparticles in HTF was added to achieve a final sperm concentration of 10 million sperm per mL. (For nanoparticles, samples were pipetted up and down 3 times every 10 minutes to keep the nanoparticles suspended.) Samples were incubated in 96-well plates for 30 minutes at 37° C. with shaking at 150 rpm to prevent sperm from settling. Afterwards, Viadent® stain (Hoechst 33258, Hamilton Thorne) was added to achieve a final stain concentration of 10 μg/mL and samples were incubated for an additional 5 minutes. Sperm motility and viability were determined using an IVOS® Computer Assisted Sperm Analyzer (Hamilton Thorne).

In the case of `CC[C@H](C)[C@H](NC(=O)CN)C(=O)NCC(=O)N[C@@H](C)C(=O)N[C@H](C(=O)N[C@@H](CC(C)C)C(=O)N[C@@H](CCCCN)C(=O)N[C@H](C(=O)N[C@@H](CC(C)C)C(=O)N[C@H](C(=O)N[C@H](C(=O)NCC(=O)N[C@@H](CC(C)C)C(=O)N1CCC[C@H]1C(=O)N[C@@H](C)C(=O)N[C@@H](CC(C)C)C(=O)N[C@H](C(=O)N[C@@H](CO)C(=O)N[C@@H](Cc1c[nH]c2ccccc12)C(=O)N[C@H](C(=O)N[C@@H](CCCCN)C(=O)N[C@@H](CCCNC(=N)N)C(=O)N[C@@H](CCCCN)C(=O)N[C@@H](CCCNC(=N)N)C(=O)N[C@@H](CCC(N)=O)C(=O)N[C@@H](CCC(N)=O)C(N)=O)[C@@H](C)CC)[C@@H](C)CC)[C@@H](C)O)[C@@H](C)O)C(C)C)C(C)C` [melittin], the “viability of vaginal epithelium cells” value [1] is reported as “dramatically decrease”, the sperm motility (sperm) is reported as “impeded” and the sperm viability (sperm) is reported as “impeded”.
